Experimental data published in patent EP4559923A1, “ANTIHISTAMINE COMPOUND, AND PREPARATION METHOD THEREFOR AND USE THEREOF” (HC Synthetic Pharmaceutical Co., Ltd., priority 2022, dated 2024).

Experiments:
[1] = tested on: histamine; assay: Muscle tone of isolated ileal smooth muscle of guinea pigs contracted with histamine; conditions: Table 4, x±s, n = 8; for Smooth muscle tone (g) After addition of histamine: after 0.05 mL of histamine, before compound; for Smooth muscle tone (g) Before administration: before histamine and compound; for Antispasmodic percentage (%): relative to tone after adding histamine, 3 min
Protocol: (§1) The guinea pig was knocked unconscious with a wooden stick, and the abdomen was immediately dissected to separate the ileum about 15 cm in length. The contents of the intestinal segment were flushed with Tyrode's solution and placed in Tyrode's solution at a constant temperature of 37°C for later use, and oxygen was supplied simultaneously. The experimental intestinal tract (1 cm in length) was cut and placed into 20 ml of Tyrode's solution at a constant temperature of 37°C with a continuous oxygen supply. One end of the intestine was fixed on the ventilation hook and the other end was connected to the muscle tone transducer and led to the computer interface. The muscle tone value of the ileal smooth muscle was recorded with a BL system. The experiment was carried out after the intestinal segment contraction became stable.
(§2) After the ileal peristalsis curve stabilized, the tone values before adding the compound were recorded, and then 0.05 mL of histamine was added. […] The operation was repeated 8 times. The antispasmodic percentage was calculated using the following equation. Antispasmodic percentage; = (Tone value after adding histamine−Tone value after adding subject compound)/(Tone value after adding histamine) × 100% [formula]

[2] = as above; conditions: Table 4; 3 minutes after adding 0.05 mL compound at maximum histamine contraction; x±s, n = 8
Protocol: as §1, §2

[3] = tested on: histamine-induced asthma; assay: Antiasthmatic effect on histamine-induced asthma in guinea pigs (latency period); format: in vivo; conditions: X±s, n = 5; for Post-administration latency period: 1 mg/kg oral gavage, sixty minutes after administration, histamine hydrochloride spray, no asthma within 8 minutes counted as 8 minutes; for Pre-administration latency period: baseline before dosing, histamine hydrochloride spray 0.8 mg/mL for 40 seconds
Protocol: The guinea pigs were placed in a polymethyl methacrylate bell jar and a histamine hydrochloride solution was sprayed ultrasonically (0.8 mg/mL) for 40 seconds. The time point at which the guinea pigs developed asthma was recorded. The time of convulsion and fall was taken as the latency period. Guinea pigs with a latency period exceeding 180 seconds were not selected. […] The guinea pigs were administered by oral gavage at a dose of 2 mL/kg·bw. Sixty minutes after the administration, the guinea pigs were placed in bell jars, and histamine hydrochloride solution was sprayed under the same conditions as in the previous selection. The latency period for the onset of asthma was recorded. […] The results were processed statistically.

[4] = tested on: isolated ileal smooth muscle; assay: Muscle tone of isolated ileal smooth muscle of guinea pigs, compound alone; conditions: Table 3, no histamine, X±s, n = 8; for Smooth muscle tone (g) After administration: 5 minutes after adding the drug; for Smooth muscle tone (g) Before administration: before adding the drug; for Antispasmodic percentage (%): relative to tone before adding compound, 5 min
Protocol: as §1
After the ileum contraction curve stabilized, the tone values before adding the drug were recorded, then the drug or DMSO was added, and the average tone value of the ileum contraction curve at that point was recorded 5 minutes later. The operation was repeated 8 times. The antispasmodic percentage was calculated according to the following formula. Antispasmodic percentage =; (Tone value before adding subject compound−Tone value after adding subject compound)/(Tone value before adding subject compound) × 100% [formula]

| SMILES | Smooth muscle tone (g) After addition of histamine [1] [g] | Smooth muscle tone (g) Before administration [1] [g] | Antispasmodic percentage (%) [1] [%] | Smooth muscle tone (g) After administration [2] [g] | Post-administration latency period [3] [s] | Pre-administration latency period [3] [s] | Smooth muscle tone (g) After administration [4] [g] | Smooth muscle tone (g) Before administration [4] [g] | Antispasmodic percentage (%) [4] [%] |
| --- | --- | --- | --- | --- | --- | --- | --- | --- | --- |
| O=P(O)(O)OCN1CCC(=C2c3ccc(Cl)cc3CCc3cccnc32)CC1 [Compound III-1] | 3.44 ± 1.10 | 1.81 ± 0.19 | 67.44±15.23 | 1.12 ± 0.25 | 388.39 ± 53.23 | 99.34 ± 49.57 | 1.10 ± 0.22 | 1.74 ± 0.19 | 36.78±18.11 |
| O=P(O)(O)OCN1CCC(=C2c3ccc(F)cc3CCc3cccnc32)CC1 [Compound III-2] | 3.40 ± 0.99 | 1.75 ± 0.16 | 67.65±17.99 | 1.10 ± 0.19 | 367.77 ± 50.21 | 98.81 ± 50.32 | 1.15 ± 0.20 | 1.72 ± 0.23 | 33.14±15.19 |
| O=P(O)(O)OCN1CCC(=C2c3ccc(Br)cc3CCc3cccnc32)CC1 [Compound III-3] | 3.50 ± 1.19 | – | 66.28±16.30 | – | – | – | – | – | 29.82±18.20 |
| O=P(O)(O)OCCN1CCC(=C2c3ccc(Cl)cc3CCc3cccnc32)CC1 [Compound III-4] | 3.48 ± 0.98 | 1.75 ± 0.18 | 65.23±19.91 | 1.21 ± 0.20 | 366.40 ± 50.23 | 97.99 ± 50.18 | 1.17 ± 0.21 | 1.70 ± 0.20 | 31.17±20.11 |
| O=P(O)(O)OCCN1CCC(=C2c3ccc(F)cc3CCc3cccnc32)CC1 [Compound III-5] | 3.40 ± 0.83 | 1.79 ± 0.20 | 65.58±20.01 | 1.17 ± 0.23 | 371.19 ± 44.59 | 100.10 ± 43.29 | 1.18 ± 0.22 | 1.73 ± 0.21 | 31.79±16.94 |
| O=P(O)(O)OCCN1CCC(=C2c3ccc(Br)cc3CCc3cccnc32)CC1 [Compound III-6] | 3.47 ± 0.90 | 1.83 ± 0.18 | 65.42±17.83 | 1.20 ± 0.20 | 373.29 ± 50.22 | 95.26 ± 48.88 | 1.16 ± 0.27 | 1.72 ± 0.20 | 32.56±17.27 |
| O=P(O)(O)OCCCN1CCC(=C2c3ccc(F)cc3CCc3cccnc32)CC1 [Compound III-8] | – | – | 66.47±18.83 | 1.16 ± 0.25 | – | – | 1.14 ± 0.23 | – | 33.72±19.01 |
| O=P(O)(O)OCCCN1CCC(=C2c3ccc(Br)cc3CCc3cccnc32)CC1 [Compound III-9] | – | – | 67.33±19.34 | 1.14 ± 0.26 | 362.84 ± 53.77 | – | 1.18 ± 0.25 | – | 30.59±20.02 |
| O=P(O)(O)OCCCCN1CCC(=C2c3ccc(F)cc3CCc3cccnc32)CC1 [Compound III-11] | – | – | 66.37±17.33 | 1.16 ± 0.20 | 373.33 ± 50.81 | – | 1.17 ± 0.22 | – | – |
| O=P(O)(O)OCCCCN1CCC(=C2c3ccc(Br)cc3CCc3cccnc32)CC1 [Compound III-12] | 3.45 ± 0.94 | 1.82 ± 0.21 | 64.92±17.49 | 1.21 ± 0.23 | 359.80 ± 51.47 | 99.91 ± 49.45 | 1.25 ± 0.21 | 1.74 ± 0.23 | 28.16±21.10 |
| O=P(O)(O)OCCCCCN1CCC(=C2c3ccc(Br)cc3CCc3cccnc32)CC1 [Compound III-15] | 3.40 ± 0.89 | 1.80 ± 0.20 | 65.59±18.88 | 1.17 ± 0.23 | 359.61 ± 50.22 | 99.11 ± 51.09 | 1.13 ± 0.20 | 1.74 ± 0.22 | 35.05±18.37 |
| O=P(O)(O)OCOCCN1CCC(=C2c3ccc(Cl)cc3CCc3cccnc32)CC1 [Compound III-16] | 3.42 ± 0.92 | 1.83 ± 0.21 | 65.49±19.23 | 1.18 ± 0.25 | 363.23 ± 50.55 | 95.92 ± 50.22 | 1.15 ± 0.24 | 1.72 ± 0.20 | 33.14±18.54 |
| O=P(O)(O)OCOCCCN1CCC(=C2c3ccc(Cl)cc3CCc3cccnc32)CC1 [Compound III-17] | 3.41 ± 0.84 | 1.83 ± 0.25 | 65.10±19.10 | 1.19 ± 0.29 | 360.28 ± 51.00 | 96.93 ± 53.19 | 1.14 ± 0.28 | 1.71 ± 0.23 | 33.33±19.10 |
| O=P(O)(O)OCOCCCCCN1CCC(=C2c3ccc(Cl)cc3CCc3cccnc32)CC1 [Compound III-19] | 3.43 ± 0.94 | 1.82 ± 0.21 | 65.59±18.97 | 1.18 ± 0.28 | 355.71 ± 50.33 | 98.46 ± 52.04 | 1.15 ± 0.24 | 1.72 ± 0.25 | 33.13±19.91 |
| O=P(O)(O)OCN1CCC(=C2c3ccc(Cl)cc3CCc3cccnc32)CC1 [Compound IV-1] | – | – | 65.12±19.01 | 1.20 ± 0.23 | 362.39 ± 48.40 | – | 1.18 ± 0.21 | – | 30.99±19.20 |
| O=P(O)(O)OCOCCCCN1CCC(=C2c3ccc(Cl)cc3CCc3cccnc32)CC1 [Compound IV-10] | – | – | 65.31±19.57 | 1.20 ± 0.27 | 365.28 ± 52.09 | – | 1.19 ± 0.24 | – | 30.41±20.04 |
| O=P(O)(O)OCOCCCCCN1CCC(=C2c3ccc(Cl)cc3CCc3cccnc32)CC1 [Compound IV-11] | – | – | 65.89±19.39 | 1.18 ± 0.28 | 364.85 ± 51.11 | – | 1.18 ± 0.31 | – | 32.57±19.31 |
